Experimental findings from patent publication US10471076B2, “Compositions and methods to treat vision disorders” (YouHealth Biotech, Limited, priority 2014, dated 2019) are described below.

“Also recorded” adds a separate entry of the source.

This experiment deals with cataract-causing mutant crystallin proteins. The experiment in a line: Intracellular aggregation of mutant crystallins in transfected human lens progenitor cells. It counts as cell-based. As to the method: To assess the effect of lanosterol on crystallin aggregation, human lens progenitor cells were co-transfected with LSS and various crystallin constructs for 4 h. Cells co-transfected with crystallin mutants and pcDNA3.1-N-Flag were used as a control. Human lens progenitor cells co-transfected with LSS and crystallin mutant constructs were cultured for 12 h before assaying for aggregates. The rescue experiments were performed after 16 h by addition of 40 mM sterols (lanosterol or cholesterol, Sigma-Aldrich) to the cell culture medium for 2 h, which was then replaced with fresh culture medium and cells cultured for 24 h. The percentage of cells with crystallin aggregates was calculated from ten randomly selected viewing fields. The values of the wild-type LSS group, mutant group, and mutant plus lanosterol group were calculated. Cells treated with 1% DMSO were used as the controls.
The impact of LSS and lanosterol on intracellular crystallin aggregation were evaluated in single-blinded observer studies. Experiments have been repeated at least three times. P values were calculated using Student's t-tests. Fluorescence microscopy. Equal amounts of the human lens progenitor cells, HLEB-3 cells or HeLa cells were seeded on glass coverslips pretreated with TC (Solarbio). After culturing for 24 h to reach 90% confluency, the cells were transfected with plasmids containing various LSS or crystallin genes or co-transfected with plasmids containing a certain crystallin gene and those containing the wild-type or mutated LSS gene. The controls were cells transfected with the plasmids containing peGFP-N1 and/or peDNA3.1-N-Flag. Both transfection and co-transfection were performed using Lipofectamine 3000 (Invitrogen) according to the instructions from the manufacturer.
The effect of lanosterol or cholesterol on the aggresome formation of various crystallins was studied by transfecting the cells with plasmids containing various crystallin genes. The cells were incubated for 24 h to enable efficient protein expression and aggresome formation. The cells were then treated with 0-40 mM sterols in 1% (for human lens progenitor cells) or 2% DMSO (for HeLa cells). Cells treated with 1% or 2% DMSO were used as the control. After treatment for 2 h, the media was replaced with fresh media. After 12 h, the cells were used for microscopy analysis.
The microscopy samples were prepared by washing the slips with phosphate buffered saline (PBS) three times. The cells were fixed with 4% paraformaldehyde for 40 min followed by another three washes with PBS. The cells were permeabilized with 0.1% Triton X-100 (Sigma) in PBS for 10 min and blocked with 5% normal goat serum in PBS for 1 h at 37° C. […] The mounted cells were analysed using a Carl Zeiss LSM 710 confocal microscope.

Turning to `CC(C)=CCC[C@@H](C)[C@H]1CC[C@@]2(C)C3=C(CC[C@]12C)[C@@]1(C)CC[C@H](O)C(C)(C)[C@@H]1CC3` [lanosterol, 3β-Hydroxy-8,24-lanostadiene; 8,24-Lanostadien-3β-ol], the “intracellular aggregation / aggresome formation of crystallin proteins” value (0-40 mM sterols in 1% DMSO for 2 h, then 12 h, concentration-dependent, n=3, lanosterol P<1×10^−4, cholesterol P>0.1) is listed as “significantly inhibited aggresome formation; also recorded: significantly reduced the intracellular aggregation”. Moreover, the “crystallin aggregation in cells co-expressing an LSS mutant and a mutant crystallin (rescue by sterol)” value (40 mM sterols in culture medium for 2 h, then fresh medium 24 h) was “successfully reduced crystallin aggregation”.
